Assay results as given in patent US4161595A, “Levulinic acid salt” (Bristol-Myers Company, priority 1978, dated 1979).
≈ marks a conversion by molar mass, not a printed value. Counter-ions that a name gives are not always drawn.

What was measured:
[1] = In situ solubility of acid addition salts of BL-5111 in water; format: physicochemical; details: for Solubility 50° C. / Solubility 25° C.: 10 mg. BL-5111 free base in 0.3 ml. water with excess of the acid; for Solubility 25° C.: room temperature (about 25° C.)
[2] = Comparative water stability of 1:1 and 1:1.3 levulinate salts; format: physicochemical
[3] = Comparative water solubility of 1:1 and 1:1.3 levulinate salts; format: physicochemical
[4] = Comparative quantitative solubility study in water and methylene chloride; format: physicochemical; details: 25° C.; for Solubility in Methylene Chloride: measure of lipid solubility
From the text: In comparison to the hydrochloride salt of BL-5111, the 1:1.3 levulinate salt form has substantially greater water and lipid solubility. TABLE 3 below sets forth results of a comparative quantitative study of the BL-5111 hydrochloride and the 1:1.3 levulinate salt in water and methylene chloride. Solubility in methylene chloride is a measure of lipid solubility which plays an important role in any distribution in the body.

[5] = Plasma levels in dogs after oral administration by gavage; format: in vivo; details: equivalent to 10 mg. BL-5111 free base, fasted beagle dogs
Description: With respect to oral administration, the BL-5111 levulinate provides improved absorption compared to the hydrochloride salt as illustrated by enhanced plasma levels in dogs. Thus, BL-5111 levulinate (equivalent to 10 mg. of BL-5111 free base) was orally administered by gavage as a solution in 5 ml. of water followed by 20 ml. of water to beagle dogs which had been fasted 12 to 15 hours. The BL-5111 hydrochloride (equivalent to 10 mg. of the BL-5111 free base) was likewise administered with the exception that a suspension was employed due to tendency of the hydrochloride to dissolve at a rate appreciably slower than the levulinate. […] Moreover, maximum plasma level following administration was approximately three-fold greater for the levulinate than the hydrochloride while the extent of absorption of BL-5111 levulinate (determined by comparison of the area under plasma concentration-time curves taken over a period of 24 hr.) was more than double that of BL-5111 hydrochloride.

Structure (SMILES)	Solubility 50° C. [1]	Solubility 25° C. [1]	other results
COc1cc2nc(N3CCN(C(=O)c4nnc(SC)o4)CC3)nc(N)c2cc1OC [fumaric]	- (insoluble (-))	- (insoluble (-))	–
COc1cc2nc(N3CCN(C(=O)c4nnc(SC)o4)CC3)nc(N)c2cc1OC [1:1, levulinic acid salt of 4-amino-6,7-dimethoxy-2-[4-(5-methylthio-1,3,4-oxadiazole-2-carbonyl)-piperazin-1-yl]quinazoline]	–	–	Solubility and stability relative to the 1:1.3 levulinate ([2]; water, Table 2 data): relatively less soluble and stable; Solubility ([3]; 2.5 mg./ml., at 50° C.): soluble; Solubility ([3]; 10 mg./ml., at 50° C.): soluble; Solubility ([3]; 50 mg./ml., at 80° C.): insoluble
COc1cc2nc(N3CCN(C(=O)c4nnc(SC)o4)CC3)nc(N)c2cc1OC [hydrochloride]	–	–	Solubility in Water [4]: 4.42 mg/mL; Solubility in Methylene Chloride [4]: < 1 mg/mL; Solubility 50° C. ([1]; listed as hydrochloric): - (insoluble (-)); Solubility 25° C. ([1]; listed as hydrochloric): - (insoluble (-)); Time at which maximum plasma levels reached ([5]; levulinate as solution, hydrochloride as suspension, listed as BL-5111 hydrochloride): 2 h
COc1cc2nc(N3CCN(C(=O)c4nnc(SC)o4)CC3)nc(N)c2cc1OC [formic]	+ (soluble (+))	± (questionable (±))	–
COc1cc2nc(N3CCN(C(=O)c4nnc(SC)o4)CC3)nc(N)c2cc1OC [isethionic]	- (insoluble (-))	- (insoluble (-))	–
COc1cc2nc(N3CCN(C(=O)c4nnc(SC)o4)CC3)nc(N)c2cc1OC [nitric]	- (insoluble (-))	- (insoluble (-))	–
COc1cc2nc(N3CCN(C(=O)c4nnc(SC)o4)CC3)nc(N)c2cc1OC [succinic]	+ (soluble (+))	- (insoluble (-))	–
COc1cc2nc(N3CCN(C(=O)c4nnc(SC)o4)CC3)nc(N)c2cc1OC [methanesulfonic]	- (insoluble (-))	- (insoluble (-))	–
COc1cc2nc(N3CCN(C(=O)c4nnc(SC)o4)CC3)nc(N)c2cc1OC [1:1.3 levulinate, 4-AMINO-6,7-DIMETHOXY-2-[4-(5-METHYLTHIO-1,3,4-OXADIAZOLE-2-CARBONYL)-PIPERAZIN-1-YL]QUINAZOLINE LEVULINATE]	–	–	Stability of aqueous solution ([2]; room temperature): stable; Stability ([2]; water, 10 mg./ml., room temperature, listed as 1:1.3): stable; Stability ([2]; water, 50 mg./ml., room temperature): stable; Solubility ([3]; 10 mg./ml., room temperature): soluble; Solubility ([3]; 50 mg./ml., at 50° C.): soluble; Solubility in Water [4]: 38.0 mg/mL (≈ 88.1 mM); Water solubility, times that of the hydrochloride salt [4]: about 8.6 times; Solubility in Methylene Chloride [4]: > 100 mg/mL; Maximum plasma level relative to the hydrochloride [5]: approximately three-fold; Extent of absorption (area under plasma concentration-time curves) relative to BL-5111 hydrochloride ([5]; over 24 hr.): more than double
COc1cc2nc(N3CCN(C(=O)c4nnc(SC)o4)CC3)nc(N)c2cc1OC [sulfuric]	- (insoluble (-))	- (insoluble (-))	–
COc1cc2nc(N3CCN(C(=O)c4nnc(SC)o4)CC3)nc(N)c2cc1OC [hydrobromic]	- (insoluble (-))	- (insoluble (-))	–
COc1cc2nc(N3CCN(C(=O)c4nnc(SC)o4)CC3)nc(N)c2cc1OC [phosphoric]	- (insoluble (-))	- (insoluble (-))	–
COc1cc2nc(N3CCN(C(=O)c4nnc(SC)o4)CC3)nc(N)c2cc1OC [acetic]	+ (soluble (+))	+ (soluble (+))	Solubility ([1]; room temperature, 10 mg./0.3 ml. water, read-out: Solubility sufficient to provide a solution): ≥ 33 mg/mL
